Molecules are shown by their SMILES. Where “and” joins values, the source holds several entries; their conditions need not be identical. Equal entries are not always repeated.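 48-hour exposure; five concentrations; linearly interpolated endpoints. The concentration for 50% growth inhibition is given as GI50. TGI: concentration producing complete growth inhibition.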

Among the test systems are CCRF-CEM leukemia; UACC-257 melanoma; NCI-H522 lung; SW-620 colon; SK-MEL-2 melanoma; HOP-92 NSCLC; TK-10 renal; A498 renal; SK-MEL-5 melanoma; SF-539 CNS.
Assay in all cases: NCI anticancer screen, dose series, 48 h

On to `Fc1cc(F)c(COc2cc(Cn3cnc4c(Cl)nc(Cl)nc43)ccc2C23CC4CC(CC(C4)C2)C3)cc1F`, for which the GI50 with CCRF-CEM leukemia is 1.91 µM; with UACC-257 melanoma, 21 µM; in the assay with NCI-H522 lung, 2.29 µM; in the assay on SW-620 colon, 12.3 µM; with SK-MEL-2 melanoma, 21 µM; in the assay with HOP-92 NSCLC, 17.6 µM. Also, the GI50 in the assay on TK-10 renal was 17.1 µM; in the assay on A498 renal, 99.2 µM; in the assay on SK-MEL-5 melanoma it was 1.68 µM; in the assay on SF-539 CNS, 17.9 µM. Moreover, the TGI with CCRF-CEM leukemia worked out at 4.52 µM; in the assay on UACC-257 melanoma, 39.3 µM; in the assay on NCI-H522 lung it was 5.56 µM; in the assay with SW-620 colon, 29.3 µM; with SK-MEL-2 melanoma, 56.1 µM; in the assay on HOP-92 NSCLC it was 32.1 µM. Also, the TGI in the assay with TK-10 renal is 31.1 µM; with A498 renal, more than 100 µM; in the assay on SK-MEL-5 melanoma, 3.53 µM; in the assay on SF-539 CNS it was 32.3 µM.

`CCN(CC)c1ccc(C(=N)c2ccc(N(CC)CC)cc2)cc1`: the GI50 with CCRF-CEM leukemia is 0.741 µM; in the assay on UACC-257 melanoma it was 0.744 µM; with NCI-H522 lung it was 0.193 µM; with SW-620 colon, 0.346 µM; in the assay with SK-MEL-2 melanoma, 0.423 µM; in the assay on HOP-92 NSCLC, 0.607 µM. The GI50 was 0.896 µM with TK-10 renal, 0.575 µM in the assay with A498 renal, 0.342 µM in the assay on SK-MEL-5 melanoma and 0.83 µM in the assay with SF-539 CNS. The TGI in the assay with CCRF-CEM leukemia was determined as 9.3 µM; with UACC-257 melanoma it was 2.25 µM; with NCI-H522 lung, 0.765 µM; in the assay on SW-620 colon it was 1.5 µM; in the assay with SK-MEL-2 melanoma, 1.52 µM; with HOP-92 NSCLC it was 2.72 µM. Further, the TGI in the assay on TK-10 renal was determined as 4.29 µM; in the assay with A498 renal, 2.38 µM; in the assay with SK-MEL-5 melanoma, 1.24 µM; in the assay with SF-539 CNS, 2.43 µM.

On to `CCCCN=C(N)c1ccc(OCCSCCOc2ccc(C(N)=NCCCC)cc2)cc1`, for which the GI50 with CCRF-CEM leukemia is 20.7 µM; in the assay on UACC-257 melanoma it was 4.4 µM; with NCI-H522 lung, 2.25 µM; in the assay with SW-620 colon, 10.2 µM; with SK-MEL-2 melanoma it was 5.36 µM; with HOP-92 NSCLC it was 1.44 µM. The GI50 in the assay with TK-10 renal is 66.6 µM; in the assay on A498 renal, 15.2 µM; in the assay on SK-MEL-5 melanoma, 1.28 µM; in the assay on SF-539 CNS, 5.59 µM. Also, the TGI in the assay with CCRF-CEM leukemia was more than 100 µM; in the assay with UACC-257 melanoma, 71.8 µM; in the assay with NCI-H522 lung, 12.8 µM; in the assay on SW-620 colon it was more than 100 µM; in the assay on SK-MEL-2 melanoma, 21.9 µM; in the assay on HOP-92 NSCLC, 14.6 µM. In addition, the TGI with TK-10 renal is more than 100 µM; with A498 renal, more than 100 µM; in the assay on SK-MEL-5 melanoma, 14.4 µM; in the assay on SF-539 CNS it was more than 100 µM.

With `O=C(c1cccc(O)c1O)c1cn(Cc2ccc(F)cc2)c2cccc(O)c12`, the GI50 in the assay with CCRF-CEM leukemia is 0.861 µM; in the assay on UACC-257 melanoma, 4.44 µM; in the assay on NCI-H522 lung, 1.38 µM; in the assay on SW-620 colon, 5.26 µM; with SK-MEL-2 melanoma, 7.93 µM; in the assay on HOP-92 NSCLC, 0.361 µM. For the same compound, the GI50 in the assay on TK-10 renal is 7.01 µM; in the assay with A498 renal, 12.9 µM; in the assay on SK-MEL-5 melanoma, 1.73 µM; with SF-539 CNS, 2.49 µM. In addition, the TGI in the assay with CCRF-CEM leukemia was 6.44 µM; with UACC-257 melanoma, 14.3 µM; in the assay on NCI-H522 lung it was 8.08 µM; with SW-620 colon, 19.9 µM; in the assay on SK-MEL-2 melanoma, 23.2 µM; in the assay with HOP-92 NSCLC it was 7.44 µM. For the same compound, the TGI in the assay with TK-10 renal amounted to 26.8 µM; with A498 renal, 25.6 µM; with SK-MEL-5 melanoma, 4.97 µM; with SF-539 CNS, 11.2 µM.

As to `CCOC(=O)c1c(CN2CCN(c3ccccc3)CC2)n(-c2ccccc2)c2cc(Br)c(O)cc12`, the GI50 in the assay on CCRF-CEM leukemia is 0.0602 µM; in the assay with UACC-257 melanoma it was 18.2 µM; in the assay with NCI-H522 lung it was 16.1 µM; in the assay with SW-620 colon it was 6.32 µM; with SK-MEL-2 melanoma, 17.2 µM; in the assay on HOP-92 NSCLC, 2.98 µM. For the same compound, the GI50 is 25 µM with TK-10 renal, 12.7 µM in the assay on A498 renal, 8.82 µM with SK-MEL-5 melanoma and 15.5 µM in the assay with SF-539 CNS. The TGI was more than 100 µM with CCRF-CEM leukemia; 50.9 µM in the assay with UACC-257 melanoma; 44.5 µM with NCI-H522 lung; 48 µM in the assay on SW-620 colon; 36.2 µM in the assay on SK-MEL-2 melanoma; 11.7 µM in the assay with HOP-92 NSCLC. Further, the TGI was found to be 58.9 µM with TK-10 renal, 26.8 µM with A498 renal, 23.1 µM in the assay with SK-MEL-5 melanoma and 34.9 µM with SF-539 CNS.

Regarding `COc1ccc(C(C)c2cc3c(cc2OC)OCO3)cc1` (centres undefined), the TGI is more than 66.2 µM with CCRF-CEM leukemia; more than 75.5 µM in the assay with UACC-257 melanoma; 0.438 µM with NCI-H522 lung; more than 100 µM in the assay with SW-620 colon; 2.49 µM in the assay on SK-MEL-2 melanoma; 36 µM in the assay on HOP-92 NSCLC. Further, the TGI in the assay on TK-10 renal was more than 100 µM; in the assay with A498 renal, more than 100 µM; in the assay with SK-MEL-5 melanoma it was 2.31 µM; in the assay with SF-539 CNS it was 0.275 µM.

Take `COc1cc(OC(=O)c2c(O)cc(O)c(O)c2C)cc(C)c1C(=O)Oc1cc(C)c(C(=O)O)c(O)c1`: the TGI in the assay with CCRF-CEM leukemia, in the assay with UACC-257 melanoma, in the assay on NCI-H522 lung, with SW-620 colon, with SK-MEL-2 melanoma and in the assay on HOP-92 NSCLC was more than 100 µM throughout. The TGI in the assay with TK-10 renal, in the assay with A498 renal, in the assay with SK-MEL-5 melanoma and with SF-539 CNS was more than 100 µM each time.

Turning to `COc1c2c(cc3nc4ccccc4nc13)CCC(C(C)(C)O)C2` (centres undefined), the TGI in the assay on CCRF-CEM leukemia, in the assay on UACC-257 melanoma, in the assay on NCI-H522 lung, in the assay on SW-620 colon, with SK-MEL-2 melanoma and with HOP-92 NSCLC was more than 100 µM in each case. Moreover, the TGI in the assay with TK-10 renal, with A498 renal, with SK-MEL-5 melanoma and in the assay with SF-539 CNS was more than 100 µM each time.

Turning to `N#Cc1nc(C2OC(COC(=O)c3ccccc3)C(OC(=O)c3ccccc3)C2OC(=O)c2ccccc2)oc1N` (centres undefined), the TGI in the assay on CCRF-CEM leukemia was 34.6 µM; in the assay with UACC-257 melanoma, more than 100 µM; with NCI-H522 lung, 65.2 µM; with SW-620 colon it was more than 100 µM; in the assay with SK-MEL-2 melanoma, 93.7 µM; with HOP-92 NSCLC it was more than 100 µM. Further, the TGI in the assay with TK-10 renal was more than 100 µM; in the assay with A498 renal it was more than 100 µM; in the assay with SK-MEL-5 melanoma, 40 µM; in the assay on SF-539 CNS, more than 100 µM.

`CC(=O)OC[C@]12CC[C@H]3[C@@H](C[C@H]4O[C@]45[C@@H](O)C=CC(=O)[C@]35C)[C@@H]1CC[C@@H]2[C@H](C)[C@H]1CC(C)=C(C)C(=O)O1`: the GI50 with CCRF-CEM leukemia was 0.229 µM and 0.112 µM; in the assay on UACC-257 melanoma, 0.638 µM and 0.801 µM; with NCI-H522 lung, 0.259 µM and 0.166 µM; with SW-620 colon it was 0.274 µM and 0.141 µM; in the assay on SK-MEL-2 melanoma, 0.752 µM and 0.484 µM; with HOP-92 NSCLC it was 0.22 µM and 0.189 µM. For the same compound, the GI50 in the assay with TK-10 renal was 0.548 µM and 0.68 µM; in the assay with A498 renal it was 0.852 µM and 1.2 µM; in the assay with SK-MEL-5 melanoma it was 0.702 µM and 0.664 µM; with SF-539 CNS it was 0.303 µM and 0.2 µM. For the same compound, the TGI with CCRF-CEM leukemia is 0.745 µM and 1.82 µM; in the assay with UACC-257 melanoma it was 2.69 µM; in the assay on NCI-H522 lung it was 0.561 µM and 0.406 µM; in the assay with SW-620 colon it was 0.744 µM and 0.463 µM; in the assay with SK-MEL-2 melanoma, 1.52 µM; in the assay with HOP-92 NSCLC, 0.722 µM and 1.27 µM. Also, the TGI is 1.82 µM in the assay on TK-10 renal; 2.77 µM in the assay on A498 renal; 2.02 µM in the assay on SK-MEL-5 melanoma; 0.73 µM and 0.452 µM in the assay with SF-539 CNS.

On to `CN/N=C(/CCN1CCCC1)CC(c1ccccc1)c1c(O)c2ccccc2oc1=O` (centres undefined), for which the TGI is more than 100 µM in the assay with CCRF-CEM leukemia; more than 100 µM in the assay with UACC-257 melanoma; more than 100 µM in the assay with NCI-H522 lung; more than 100 µM in the assay with SW-620 colon; more than 100 µM in the assay on SK-MEL-2 melanoma; 41.8 µM in the assay on HOP-92 NSCLC. Moreover, the TGI in the assay on TK-10 renal, with A498 renal, with SK-MEL-5 melanoma and in the assay on SF-539 CNS was more than 100 µM in each case.

`COc1ccc(C(=O)c2cc(C)c(OC)c(C)c2)c(OC)c1N(C(=O)C(Cl)Cl)C(=O)C(Cl)Cl`: the GI50 was 0.0626 µM in the assay with CCRF-CEM leukemia; more than 69.4 µM in the assay on UACC-257 melanoma; 0.0322 µM in the assay with NCI-H522 lung; 0.0426 µM in the assay with SW-620 colon; 0.0669 µM in the assay with SK-MEL-2 melanoma; 0.407 µM in the assay on HOP-92 NSCLC. Further, the GI50 with TK-10 renal was more than 79.8 µM; in the assay on A498 renal, less than 0.0156 µM; with SK-MEL-5 melanoma it was 0.0509 µM; in the assay with SF-539 CNS, 0.0343 µM. The TGI in the assay with CCRF-CEM leukemia was more than 100 µM; in the assay on UACC-257 melanoma, more than 100 µM; in the assay on SW-620 colon, more than 100 µM; in the assay with SK-MEL-2 melanoma it was more than 100 µM; with HOP-92 NSCLC, more than 94 µM; in the assay with TK-10 renal, more than 100 µM. Further, the results for the TGI with A498 renal, in the assay with SK-MEL-5 melanoma and with SF-539 CNS were 0.0736 µM, 2.14 µM and 0.206 µM, respectively.

Take `CC(C)c1ccc(C(=O)Nc2sc3c(c2C(N)=O)CCC(=O)C3)cc1`: the GI50 with CCRF-CEM leukemia is 0.215 µM; in the assay on UACC-257 melanoma, 2.05 µM; in the assay on NCI-H522 lung, 0.316 µM; in the assay on SW-620 colon it was 0.256 µM; with SK-MEL-2 melanoma, 2.16 µM; in the assay on HOP-92 NSCLC it was 1.29 µM. Moreover, the GI50 was 1.29 µM in the assay with TK-10 renal, 2.33 µM with A498 renal, 1.14 µM in the assay on SK-MEL-5 melanoma and 0.359 µM in the assay on SF-539 CNS. Moreover, the TGI in the assay with CCRF-CEM leukemia turned out to be 4.27 µM; in the assay on UACC-257 melanoma, 5.04 µM; in the assay with NCI-H522 lung, 1.56 µM; in the assay with SW-620 colon, 1.6 µM; with SK-MEL-2 melanoma, 5.25 µM; with HOP-92 NSCLC it was 3.67 µM. Moreover, the TGI in the assay on TK-10 renal was 3.81 µM; in the assay on A498 renal, 8.52 µM; in the assay with SK-MEL-5 melanoma, 2.56 µM; in the assay with SF-539 CNS, 1.49 µM.

(Values after PubChem BioAssay (NCI).)
